{"source": "patent US6890933B1", "about": "“Kinesin inhibitors” (President and Fellows of Harvard College, priority 2000, dated 2005)", "key": {"[1]": {"target": "T1, full length Xenopus Eg5 (Xenopus laevis, UniProt P28025)", "T1 construct": "Full length Xenopus Eg5 was expressed in baculovirus according to standard protocols; made in house", "T1 sequence (P28025 1-1067)": "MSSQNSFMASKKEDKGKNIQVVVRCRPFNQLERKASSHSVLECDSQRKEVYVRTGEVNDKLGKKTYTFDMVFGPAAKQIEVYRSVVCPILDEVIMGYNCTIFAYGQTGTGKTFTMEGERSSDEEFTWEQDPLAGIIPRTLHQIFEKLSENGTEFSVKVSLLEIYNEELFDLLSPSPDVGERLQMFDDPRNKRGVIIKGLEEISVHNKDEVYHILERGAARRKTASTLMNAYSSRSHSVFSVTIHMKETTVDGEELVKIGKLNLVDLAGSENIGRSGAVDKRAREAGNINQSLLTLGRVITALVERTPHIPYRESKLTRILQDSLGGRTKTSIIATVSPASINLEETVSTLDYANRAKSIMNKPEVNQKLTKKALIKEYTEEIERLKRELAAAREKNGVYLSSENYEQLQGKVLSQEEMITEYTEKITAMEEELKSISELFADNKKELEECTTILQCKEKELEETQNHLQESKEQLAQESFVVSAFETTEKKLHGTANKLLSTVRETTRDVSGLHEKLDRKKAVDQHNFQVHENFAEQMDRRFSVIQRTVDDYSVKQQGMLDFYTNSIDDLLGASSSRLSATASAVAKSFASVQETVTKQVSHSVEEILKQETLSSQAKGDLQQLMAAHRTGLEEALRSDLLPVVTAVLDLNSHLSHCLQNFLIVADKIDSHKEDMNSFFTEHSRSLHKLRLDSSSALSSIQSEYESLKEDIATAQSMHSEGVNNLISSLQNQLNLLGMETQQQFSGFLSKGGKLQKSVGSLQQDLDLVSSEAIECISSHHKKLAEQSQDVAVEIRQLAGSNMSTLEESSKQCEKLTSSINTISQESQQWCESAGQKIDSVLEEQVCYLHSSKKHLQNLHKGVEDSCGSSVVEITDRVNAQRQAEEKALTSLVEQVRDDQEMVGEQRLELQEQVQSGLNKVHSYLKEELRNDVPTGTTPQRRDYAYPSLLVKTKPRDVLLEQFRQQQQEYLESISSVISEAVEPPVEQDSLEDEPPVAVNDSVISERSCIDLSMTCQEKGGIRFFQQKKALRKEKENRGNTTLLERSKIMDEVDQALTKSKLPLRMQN", "assay": "Microtubule motility driven by full length Xenopus Eg5, with washout", "assay_type": "biochemical", "conditions": "full length Xenopus Eg5, washout experiment", "protocol": "FIG. 2 depicts the results of experiments examining the motility activity of full length Xenopus Eg5 with and without the beta-carboline, 22C16.\nIn addition, the ability of 22C16 to inhibit microtubule motility driven by Eg5 was examined. For experimental protocols and details, see Mayer et al. Science 286:971-974, 1999. […] For the washout, Eg5-driven microtubule motility in the presence of 22C16 was measured. The assay chamber was then depleted of 22C16 and motility was immediately measured again. Therefore, the results of the experiment depicted in FIG. 2 provide direct evidence that 22C16 inhibits the microtubule motility driven by Eg5."}, "[2]": {"target": "T2, conventional human kinesin (Homo sapiens, UniProt P33176)", "T2 construct": "human kinesin (N-terminal 560 amino acids of full length protein followed by 6-His tag at C terminus); made in house; host or cells: E. coli BL21 pLysS (DE3) (the purification section covers Eg5-405 and K560)", "T2 sequence (P33176 1-560)": "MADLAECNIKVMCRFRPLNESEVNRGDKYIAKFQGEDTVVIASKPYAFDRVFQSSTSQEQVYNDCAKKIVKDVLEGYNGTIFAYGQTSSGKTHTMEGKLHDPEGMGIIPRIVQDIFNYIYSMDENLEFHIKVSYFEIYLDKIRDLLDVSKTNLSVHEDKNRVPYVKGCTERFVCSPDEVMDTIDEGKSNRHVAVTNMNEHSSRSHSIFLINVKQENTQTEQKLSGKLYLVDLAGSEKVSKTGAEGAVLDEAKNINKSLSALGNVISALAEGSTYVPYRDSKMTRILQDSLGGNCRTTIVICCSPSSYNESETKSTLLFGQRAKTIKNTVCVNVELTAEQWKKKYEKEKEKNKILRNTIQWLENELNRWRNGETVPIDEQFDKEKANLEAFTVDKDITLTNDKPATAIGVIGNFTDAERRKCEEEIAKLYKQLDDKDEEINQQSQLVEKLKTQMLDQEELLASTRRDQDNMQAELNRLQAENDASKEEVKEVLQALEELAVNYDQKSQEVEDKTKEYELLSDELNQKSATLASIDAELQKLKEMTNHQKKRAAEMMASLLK", "assay": "NADH enzyme coupled ATPase assay with conventional human kinesin (K560)", "assay_type": "biochemical", "conditions": "N-terminal 560 amino acids, 6-His tag", "protocol": "Since the effect of 22C16 on mono-astral formation in mammalian cells was similar to that of cells treated with monastrol, the ability of 22C16 to inhibit kinesins was examined.\nPurification of Eg5-405 and K560 (560 Amino Acid Kinesin Construct):\n(§1) In vitro NADH Enzyme Coupled A TPase: (variation on Methods Described in Crevel, Lockhart, and Cross. J. Mol. Biol. (1997) 273, 160-170.)\n(§2) A solution containing the microtubule resuspension buffer was supplemented with 1 mM Mg-ATP, 100 uM nicotinamide adenine dinucleotide (NADH), 1 mM phosphoenol pyruvate, 5 ug/ml pyruvate kinase, 7.5 ug/ml lactate dehydrogenase, 0.7 uM resuspended microtubules, and 0.5% dimethylsulfoxide (DMSO)."}, "[3]": {"test_system": "BS-C-1 cells", "assay": "Cell assay for formation of mono-astral spindle structures (immunofluorescence, DAPI / anti-alpha-tubulin)", "assay_type": "cell-based, monkey", "conditions": "for pIC50: Primates, BSC-1, BS-C-1 cells, direct comparison, unpublished observations of Mayer and Mitchison, read-out: IC50 (median inhibitory concentration), formation of mono-astral structures", "protocol": "When the effects of 22C16 and monastrol on microtubule structure were directly compared, it was shown by examining formation of mono-astral structures that 22C16 has an IC50 (median inhibitory concentration) of approximately 2 uM as compared to the IC50 of approximately 20 uM for monastrol (Mayer and Mitchison, unpublished observations). For experimental details on the cell assay to determine mono-astral structures, see Mayer et al. Science 286:971-974, 1999. Images of live BS-C-1 cells were taken as described (Cramer et al. Curr. Opin. Cell. Biol. 67:82, 1994). Briefly, for immunofluorescence, BS-C-1 cells were stained with DAPI (4′,6-diamidino-2-phenylindole; Sigma-Aldrich) to visualize DNA and anti-α-tubulin (DM1 A; Sigma-Aldrich, St. Louis) to visualize spindle structure."}, "[4]": {"test_system": "BSC1 cells", "assay_type": "cell-based, monkey"}, "[5]": {"target": "T3, human Eg5 (Homo sapiens, UniProt P52732)", "T3 construct": "human Eg5 (N-terminal 405 amino acids and 6-His tagged at C terminus); made in house; host or cells: E. coli BL21 pLysS (DE3), plasmid pRSETa", "T3 sequence (P52732 1-405 limits assumed)": "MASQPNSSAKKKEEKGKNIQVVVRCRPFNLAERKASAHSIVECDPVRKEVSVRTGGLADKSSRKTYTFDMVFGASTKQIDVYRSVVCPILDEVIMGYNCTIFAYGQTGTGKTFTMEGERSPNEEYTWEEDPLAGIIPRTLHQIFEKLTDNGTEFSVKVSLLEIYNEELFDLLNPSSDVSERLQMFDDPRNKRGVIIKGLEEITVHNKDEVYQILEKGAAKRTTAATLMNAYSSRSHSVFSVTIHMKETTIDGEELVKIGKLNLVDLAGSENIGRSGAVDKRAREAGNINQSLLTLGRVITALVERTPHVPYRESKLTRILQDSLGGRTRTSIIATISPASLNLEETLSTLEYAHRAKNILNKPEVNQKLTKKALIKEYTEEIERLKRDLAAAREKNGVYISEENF", "assay": "In vitro NADH enzyme coupled ATPase assay with purified recombinant human Eg5 (Eg5-405)", "assay_type": "biochemical", "from_the_text": "FIG. 7 depicts a description of the NADH enzyme coupled ATPase assay used to study the inhibition of the ability of purified human recombinant Eg5 to hydrolyze ATP in the presence and absence of 22C16 and monastrol.\nas §1\nFor a brief description as the ATPase assay used in the present example, see FIG. 7.\nas §2\nNext, serial dilutions of the compound 22C16 were prepared in the supplemented microtubule resuspension buffer. Purified recombinant human Eg5 protein was added resulting in a final concentration of 50 uM. The subsequent fluorescent reaction was measured in NUNC black walled 384 well plates at 340 nm using a Wallac plate reader."}}, "note": "pIC50: −log10 of the molar value. “Also recorded” adds a separate entry of the source. Like-named read-outs stand apart in the source and are kept apart here."}
{"compound": "CCCCN1C(=O)C2Cc3c([nH]c4ccccc34)C(c3cccc(O)c3)N2C1=O", "note": "(stereo not drawn) [22C16]", "values": [{"measurement": "inhibition of microtubule motility driven by Eg5 (in words)", "setting": "[1]", "result": "acts reversibly to inhibit the motility of Eg5; also recorded: reversibly inhibits microtubule motility"}, {"measurement": "inhibition of ATPase activity of conventional human kinesin (in words)", "setting": "[2]", "result": "but not conventional human kinesin"}, {"measurement": "pIC50", "setting": "[3]", "result": "~5.70"}, {"measurement": "spindle phenotype in mitotic cells (in words)", "setting": "[3]; mitotic mammalian (BSC1) cells", "result": "caused the formation of monopolar spindles; also recorded: formation of mono-astral spindles; also recorded: capable of arresting cells in mitosis; also recorded: form a mono-astral microtubule array surrounded by a ring of chromosomes"}, {"measurement": "effect on Golgi (in words)", "setting": "[4]", "result": "fragmented the Golgi; also recorded: fragmentation of the Golgi"}, {"measurement": "effect on interphase microtubules (in words)", "setting": "[4]", "result": "did not depolymerize interphase microtubules; also recorded: without affecting interphase microtubules"}, {"measurement": "pIC50", "setting": "[5]", "result": 5.96}, {"measurement": "inhibition of ATPase activity of human Eg5 (in words)", "setting": "[5]; Eg5 N-terminal 405 amino acids, 6-His tagged", "result": "block the ATPase activity; also recorded: capable of inhibiting the ATPase activity; also recorded: inhibits the ability of Eg5"}, {"measurement": "potency relative to monastrol in inhibition of ATPase activity of human kinesin Eg5", "setting": "[5]; ratio of IC50 values", "result": "approximately 5 times"}]}
{"compound": "CCOC(=O)C1=C(C)NC(=S)NC1c1cccc(O)c1", "note": "(stereo not drawn) [monastrol, reference compound]", "values": [{"measurement": "pIC50", "setting": "[3]", "result": "~4.70"}, {"measurement": "pIC50", "setting": "[5]; purified recombinant human Eg5, microtubules, 1 mM Mg-ATP, read-out: IC50, inhibition of Eg5 ATPase activity", "result": 5.28}]}
{"compound": "CCCCN1C(=O)C2Cc3c([nH]c4ccccc34)C(c3cccc(O)c3)N2C1=O", "note": "(stereo not drawn) [trans isomer of monastroline]", "values": [{"measurement": "IC50 lower than monastrol (fold), ATPase assay of Example 2", "setting": "[5]; optically purified trans stereoisomer versus monastrol", "result": "approximately 8 times"}]}
